A short description of data set [1]: Physical form composition of active ingredient in tablets prepared using wet granulation. The data set is classed as physicochemical. How it is done:
Wet granulation of (S)—N-(3-(6-isopropoxypyridin-3-yl)-1H-indazol-5-yl)-1-(2-(4-(4-(1-methyl-1H-1,2,4-triazol-3-yl)phenyl)-3,6-dihydropyridin-1(2H)-yl)-2-oxoethyl)-3-(methylthio)pyrrolidine-3-carboxamide crystalline form 1 HCl was achieved using a high shear granulator. […] was alternatively achieved using a fluidized bed procedure.
Two tablets (1a and 1b) having the following amounts (weight %) of ingredients were prepared using wet granulation.
The following procedure was followed: • 1. Prepare a 20% binder solution by adding purified water and polyvinyl pyrrolidone K30 to a mixing vessel and stir until completely dissolved. • 2. Add lactose, microcrystalline cellulose (Avicel 102), (S)—N-(3-(6-isopropoxypyridin-3-yl)-1H-indazol-5-yl)-1-(2-(4-(4-(1-methyl-1H-1,2,4-triazol-3-yl)phenyl)-3,6-dihydropyridin-1(2H)-yl)-2-oxoethyl)-3-(methylthio)pyrrolidine-3-carboxamide crystalline form 1 HCl and a disintegrant (croscarmellose sodium or crospovidone) to a high shear granulator. • 3. Dry mix the ingredients using an impeller and chopper. • 4. Add the binder solution prepared in step 1 to the high shear granulator using a peristaltic pump and flexible tubing. • 5. Spray the binder solution to form wet granules. Additional mixing without spraying of the binder solution (also known as wet massing) may be used. • 6. Pass the wet granulation through a screen. • 7. Dry the granules using a tray dryer and dry heat. • 8. Pass the dried granules through a screen and add to a bin. • 9. Add extragranular disintegrant (croscarmellose sodium or crospovidone) to the materials in step 8 and blend. • 10. Add prescreened magnesium stearate lubricant to the bin and blend. • 11. Compress the lubricated blend resulting from step 10 using a suitable rotary tablet press. Fluidized Bed Granulation: • 1. Prepare a 20% binder solution by adding purified water and PVP K30 to a mixing vessel and stir until completely dissolved. • 2. Add lactose monohydrate, microcrystalline cellulose, (S)—N-(3-(6-isopropoxypyridin-3-yl)-1H-indazol-5-yl)-1-(2-(4-(4-(1-methyl-1H-1,2,4-triazol-3-yl)phenyl)-3,6-dihydropyridin-1(2H)-yl)-2-oxoethyl)-3-(methylthio)pyrrolidine-3-carboxamide crystalline form 1 HCl and croscarmellose sodium or crospovidone disintegrant to a fluid bed to form a mixture. • 3. Pre-heat the materials of step 2 using fluid air until the target bed temperature reaches 55°-60° C. • 4. Spray the binder solution prepared in step 1 onto the mixture resulting from step 2 to form wet granules. • 5. Fluidize and dry the wet granules resulting from step 4. • 6. Pass the dried granules through a screen and add to a bin • 7. Add extragranular croscarmellose sodium or crospovidone disintegrant to the dried granules and blend. • 8. Add prescreened magnesium stearate lubricant to the blend resulting from step 7 and blend. • 9. Compress the final lubricated blend using a suitable rotary tablet press.
(§1) “LOD” refers to “limit of detection” and “<LOD” means the amount of indicated material, if any, was not detectable.

The nature of data set [2]: Physical form composition of active ingredient in tablets prepared using roller compaction. The class given is physicochemical.
Text: (S)—N-(3-(6-isopropoxypyridin-3-yl)-1H-indazol-5-yl)-1-(2-(4-(4-(1-methyl-1H-1,2,4-triazol-3-yl)phenyl)-3,6-dihydropyridin-1(2H)-yl)-2-oxoethyl)-3-(methylthio)pyrrolidine-3-carboxamide crystalline form 1 HCl was subjected to roller compaction in order to create a granular composition for subsequent use in preparing tablets of (S)—N-(3-(6-isopropoxypyridin-3-yl)-1H-indazol-5-yl)-1-(2-(4-(4-(1-methyl-1H-1,2,4-triazol-3-yl)phenyl)-3,6-dihydropyridin-1(2H)-yl)-2-oxoethyl)-3-(methylthio)pyrrolidine-3-carboxamide crystalline form 1 HCl.
Three tablets (RC-1, RC-2 and RC-3) having the following amounts (weight %) of ingredients were prepared using roller compaction.
The following procedure was followed: • 1. Blend colloidal silicon dioxide and (S)—N-(3-(6-isopropoxypyridin-3-yl)-1H-indazol-5-yl)-1-(2-(4-(4-(1-methyl-1H-1,2,4-triazol-3-yl)phenyl)-3,6-dihydropyridin-1(2H)-yl)-2-oxoethyl)-3-(methylthio)pyrrolidine-3-carboxamide crystalline form 1 HCl in a blender. • 2. Delump the blend using a screen. • 3. Blend lactose monohydrate, microcrystalline cellulose (Avicel 102), and disintegrant (croscarmellose sodium or crospovidone) with the delumped materials from step 2 using a blender. • 4. Add prescreened magnesium stearate lubricant to the blend of step 3 and blend. • 5. Roller compact the blend resulting from step 4 • 6. Screen the roller compacted ribbons through a mesh and add the resulting milled granules to a suitable bin. • 7. Add prescreened extragranular magnesium stearate lubricant to the bin and blend with the milled granules. • 8. Compress the final lubricated blend resulting from step 7 using a suitable rotary tablet press.
as §1

The mark [3] stands for this setting: wet granulation tablets, <LOD = not detectable.
[4] abbreviates: wet granulation tablets, share of total active ingredient.
Setting [5] is: share of total active ingredient.

This note sets out measurements from patent US10058544B2, “(S)-N-(3-(6-isopropoxypyridin-3-yl)-1H-indazol-5-yl)-1-(2-(4-(4-(1-methyl-1H-1,2,4-triazol-3-yl)phenyl)-3,6-dihydropyridin-1(2H)-yl)-2-oxoethyl)-3-(methylthio)pyrrolidine-3-carboxamide compositions for pharmaceutical preparations” (Merck Sharp & Dohme Corp., priority 2014, dated 2018).

Counter-ions that a name gives are not always drawn.

In the case of `CS[C@@]1(C(=O)Nc2ccc3[nH]nc(-c4ccc(OC(C)C)nc4)c3c2)CCN(CC(=O)N2CC=C(c3ccc(-c4ncn(C)n4)cc3)CC2)C1` [F-1 HCl, (S)—N-(3-(6-isopropoxypyridin-3-yl)-1H-indazol-5-yl)-1-(2-(4-(4-(1-methyl-1H-1,2,4-triazol-3-yl)phenyl)-3,6-dihydropyridin-1(2H)-yl)-2-oxoethyl)-3-(methylthio)pyrrolidine-3-carboxamide crystalline form 1 HCl], the “disproportionation of crystalline form 1 HCl” value in data set [1] (wet granulation processing (high shear or fluidized bed)) is listed as “no disproportionation”. Besides, in data set [1] (setting [3]), the “Am FB (amorphous free base) amount” value is listed as “LOD” and the “F-1 FB (crystalline form 1 free base) amount” value was “LOD”. For the same compound, in data set [1] (setting [4]), the “Am HCl (amorphous HCl) amount” value amounted to 7% and the “F-1 HCl (crystalline form 1 HCl) amount” value is listed as 92%. In data set [2] (<LOD = not detectable), the “F-1 FB (crystalline form 1 free base) amount” value is reported as “<LOD”. For the same compound, in data set [2] (setting [5]), the “Am FB (amorphous free base) amount” value is reported as “<LOD”, the “Am HCl (amorphous HCl) amount” value came to 7% and the “F-1 HCl (crystalline form 1 HCl) amount” value was found to be 92%.
